From patent US5679671A, “Amino acid derivative” (Eisai Co., Ltd., priority 1993, dated 1997)
pIC50: −log10 of the molar value.

Key:
[1] = biological target: T1, ACE (Rattus norvegicus, UniProt P47820); assay: ACE inhibition activity (Experiment F-1); assay type: biochemical; conditions: rat lung membrane fraction, pH 8.3
T1 construct: membrane fraction prepared from rat lung; from tissue; host or cells: rat lung, membrane fraction (method of Wu-Wong et al.)
T1 sequence (P47820 36-1313): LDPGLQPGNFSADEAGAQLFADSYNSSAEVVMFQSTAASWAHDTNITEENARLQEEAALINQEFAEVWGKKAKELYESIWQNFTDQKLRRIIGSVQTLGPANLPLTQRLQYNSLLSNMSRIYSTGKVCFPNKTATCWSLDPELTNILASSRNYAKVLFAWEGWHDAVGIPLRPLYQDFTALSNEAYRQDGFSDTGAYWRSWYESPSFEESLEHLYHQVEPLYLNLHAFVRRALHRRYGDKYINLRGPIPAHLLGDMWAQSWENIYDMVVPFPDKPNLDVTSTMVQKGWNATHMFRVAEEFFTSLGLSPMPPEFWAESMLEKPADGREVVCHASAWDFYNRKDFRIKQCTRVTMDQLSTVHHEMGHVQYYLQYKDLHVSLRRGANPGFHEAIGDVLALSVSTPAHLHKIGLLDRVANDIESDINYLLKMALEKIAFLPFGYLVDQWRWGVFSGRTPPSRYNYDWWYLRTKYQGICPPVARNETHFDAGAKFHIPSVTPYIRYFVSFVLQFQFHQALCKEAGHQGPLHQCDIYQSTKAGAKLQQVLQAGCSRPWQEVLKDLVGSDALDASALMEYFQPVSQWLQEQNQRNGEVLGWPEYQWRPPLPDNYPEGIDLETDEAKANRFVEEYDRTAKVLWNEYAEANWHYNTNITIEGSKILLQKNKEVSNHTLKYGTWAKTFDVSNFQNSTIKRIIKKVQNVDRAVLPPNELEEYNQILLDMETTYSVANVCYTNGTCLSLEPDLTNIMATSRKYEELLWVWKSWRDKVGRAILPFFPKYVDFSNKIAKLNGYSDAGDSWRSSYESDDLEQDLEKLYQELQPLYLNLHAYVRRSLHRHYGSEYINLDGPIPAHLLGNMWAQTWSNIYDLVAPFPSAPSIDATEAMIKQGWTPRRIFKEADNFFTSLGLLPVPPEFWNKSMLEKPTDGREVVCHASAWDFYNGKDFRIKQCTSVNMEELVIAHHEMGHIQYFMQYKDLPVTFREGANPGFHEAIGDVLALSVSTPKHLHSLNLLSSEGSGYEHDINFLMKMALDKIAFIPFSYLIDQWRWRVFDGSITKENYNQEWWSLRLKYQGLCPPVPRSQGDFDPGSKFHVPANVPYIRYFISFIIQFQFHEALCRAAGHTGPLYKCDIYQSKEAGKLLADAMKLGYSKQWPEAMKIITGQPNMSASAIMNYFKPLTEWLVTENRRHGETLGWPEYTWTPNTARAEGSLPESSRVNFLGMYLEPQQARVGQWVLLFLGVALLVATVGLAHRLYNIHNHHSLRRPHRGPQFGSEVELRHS
Protocol: (§1) As a source of the enzyme ACE, a membrane fraction prepared from rat lung in accordance with the method of Wu-Wong et al. (Characterization of Endthelin Converting Enzyme in Rat Lung., Jinshyum R. Wu-Wong, Gerald P. Budzik, Edward M, Devine and Terry J. Opgenorth, Biochem. Biophys. Res. Commun., 1990, 171, 1291-1296.) was used. The ACE activity was determined with the use of a modification (modified to a borate buffer pH 8.3) of the method of Cushman and Cheung (Spectrophotometric Assay and Properties of the Angiotensin-Converting Enzyme of Rabbit Lung., Cushman D. W. and Cheung H. S., 1971, 20, 1637-1648.). Now the procedure will be briefly described.
In the presence of ACE, the hippurate liberated from hippuryl-histidyl-leucine (Hippuryl-His-Leu (Peptide Institute Inc., Japan)) was extracted with ethyl acetate and then the absorbance was measured at a wavelength of 228 nm.
(§2) With respect to the NEP inhibition activity and the ACE inhibition activity, the inhibitor was added to the assay systems of both enzyme activities as described above in such a manner as to give the final concentrations of 1, 3, 10, 30, 100, 300 and 1000 inhibition curves were prepared, and then the concentration at which 50% inhibition was achieved was taken as IC50.

[2] = biological target: T1, ACE; assay: ACE inhibition activity (Experiment E-1); assay type: biochemical; conditions: rat lung membrane fraction, pH 8.3
Protocol: as §1, with “Gerald,” for “Gerald”, “M.” for “M,”
In the presence of ACE, the hippurate liberated from hippuryl-histidyl-leucine (Hippuryl-His-Leu (PeptideInstitute Inc., Japan)) was extracted with ethyl acetate and then the absorbance was measured at a wavelength of 228 nm.
as §2, with “To determine” for “With respect to”, “[…]” for “300”, “1000 nM and” for “1000”, “prepared. Then” for “prepared, and then”

O=C(N[C@H]1Cc2ccccc2[C@H]2CCC[C@@H](C(=O)O)N2C1=O)[C@@H](S)Cc1ccccc1 [Comp. cpd. E-1, [4S-[4α,7α(R*),12bβ]]-7-[(1-oxo-2-(S)-thio-3-phenyl-propyl)amino]-1,2,3,4,6,7,8,12b-octahydro-6-oxopyrido-[2,1-a][2]benzazepine-4-carboxylic acid, reference compound]
pIC50 [1]: 7.97
pIC50 [2]: 8.05

CC[C@H](C)[C@H](S)C(=O)N[C@H]1CCC[C@H]2SC[C@@H](C(=O)O)N2C1=O [Example C-8, [3R-[3α,6α,(S*),9aβ]]-6-[[(2S,3S)-3-methyl-1-oxo-2-thiopentyl]amino]-octahydro-5-oxothiazol[3,2-a]-azepine-3-carboxylic acid]
pIC50 [1]: 8.28

CC[C@H](C)[C@H](S)C(=O)N[C@H]1Cc2ccc(-c3ccccc3)cc2[C@H]2CCC[C@@H](C(=O)O)N2C1=O [Example C-14, [4S-[4α,7α(R*),12bβ]]-7-[[(2S,3S)-3-Methyl-1-oxo-2-thiopentyl]amino]-6-oxo-11-phenyl-1,2,3,4,6,7,8,12b-octahydropyrido[2,1-a][2]benzazepine-4-carboxylic acid]
pIC50 [2]: 7.96

CC(C)[C@H](S)C(=O)N[C@H]1Cc2ccc(-c3ccccc3)cc2[C@H]2CCC[C@@H](C(=O)O)N2C1=O [Example E-10, [4S-[4α,7α(R*),12bβ]]-7-[(S)-2-Mercapto-3-methylbutyrylamino]-6-oxo-11-phenyl-1,2,3,4,6,7,8,12b-octahydropyrido[2,1-a][2]benzazepine-4-carboxylic acid]
pIC50 [2]: 8.00

O=C(N[C@H]1CCC[C@H]2SC[C@@H](C(=O)O)N2C1=O)[C@@H](S)Cc1ccccc1 [Example F-17, [3R-[3α,6α(S*),9aβ]]-6-[[(S)-1-Oxo-2-thio-3-phenylpropyl]amino]-octahydro-5-oxothiazol[3,2-a]-azepine-3-carboxylic acid]
pIC50 [1]: 7.87
